According to the NIST ThermoML archive (doi:10.1016/j.jct.2010.10.018):

Test: xn = mol fraction of the nth substance listed
Conditions: 101 kPa, Liquid, Vibrating tube method

CC(C)(C)O [2-methylpropan-2-ol] + O
mass density [kg/m3]
Conditions	323.15 K	333.15 K	348.15 K
x1 = 0.00089	–	982.51	974.22
x1 = 0.00146	–	982.1	973.75
x1 = 0.00269	–	981.23	973.04
x1 = 0.00403	–	980.3	972.25
x1 = 0.00513	–	979.52	971.5
x1 = 0.00761	–	977.87	969.81
x1 = 0.01405	–	973.36	965
x1 = 0.0248	–	965.88	957.02
x1 = 0.03494	–	959.46	949.37
x1 = 0.04241	–	954.72	944.24
x1 = 0.05218	–	947.17	936.2
x1 = 0.05887	–	942.74	931.84
x1 = 0.06973	–	935.49	924.4
x1 = 0.1125	–	908.96	896.84
x1 = 0.1566	–	885.44	872.83
x1 = 0.208	–	864.42	850.42
x1 = 0.2408	–	852.37	838.25
x1 = 0.3023	–	834.38	820.05
x1 = 0.3451	–	823.51	808.66
x1 = 0.4045	–	810.41	795.17
x1 = 0.4225	–	807.23	792.36
x1 = 0.4653	–	799.78	784.18
x1 = 0.5344	798.37	788.31	772.8
x1 = 0.6029	789.18	778.96	763.18
x1 = 0.6909	779.13	768.71	752.22
x1 = 0.726	775.51	765.01	748.55
x1 = 0.7999	769.18	758.52	741.72
x1 = 0.8711	763	752.17	734.96
x1 = 0.9183	759.52	748.6	731.4
x1 = 0.9574	756.76	745.7	728.29
x1 = 0.9652	756.21	745.12	727.67
x1 = 0.9795	755.31	744.15	726.63
x1 = 0.9821	755.09	743.92	726.41
x1 = 0.9944	754.31	743.11	725.51
x1 = 0.996	754.22	743.02	725.4
x1 = 1	753.94	742.7	725.05
